Data reported in patent publication US9085598B2, “Compounds targeting the cell invasion protein complex, their pharmaceutical compositions and methods of use thereof” (THE ROYAL INSTITUTE FOR THE ADVANCEMENT OF LEARNING/MCGILL …, priority 2011, dated 2015).

Tests used:
Assay in all cases: In vitro kinase activity (Kinase-Glo luminescence)
Format in all cases: biochemical
ABL1 = biological target: T1, ABL1 (Homo sapiens, UniProt P00519)
T1 construct: Human recombinant full-length kinases were incubated in kinase buffer
Experimental: (§1) Human recombinant full-length kinases were incubated in kinase buffer containing ATP and substrate (Poly Glu:Tyr) for 4 hours at room temperature with or without the presence of the compounds listed in Table 1 at various concentrations. Remaining ATP in solution was then quantified using the Kinase-Glo-Iuminescence™ kit (Promega).

MET = biological target: T2, MET (Homo sapiens, UniProt P08581)
T2 construct: Human recombinant full-length kinases were incubated in kinase buffer
Experimental: as §1

IKK-ε = biological target: T3, IKK-ε (Homo sapiens, UniProt Q14164)
T3 construct: Human recombinant full-length kinases were incubated in kinase buffer
Experimental: as §1

HER2 = biological target: T4, HER2 (Homo sapiens, UniProt P04626)
T4 construct: Human recombinant full-length kinases were incubated in kinase buffer
Experimental: as §1

FYN = biological target: T5, FYN (Homo sapiens, UniProt P06241)
T5 construct: Human recombinant full-length kinases were incubated in kinase buffer
T5 sequence (P06241 whole entry): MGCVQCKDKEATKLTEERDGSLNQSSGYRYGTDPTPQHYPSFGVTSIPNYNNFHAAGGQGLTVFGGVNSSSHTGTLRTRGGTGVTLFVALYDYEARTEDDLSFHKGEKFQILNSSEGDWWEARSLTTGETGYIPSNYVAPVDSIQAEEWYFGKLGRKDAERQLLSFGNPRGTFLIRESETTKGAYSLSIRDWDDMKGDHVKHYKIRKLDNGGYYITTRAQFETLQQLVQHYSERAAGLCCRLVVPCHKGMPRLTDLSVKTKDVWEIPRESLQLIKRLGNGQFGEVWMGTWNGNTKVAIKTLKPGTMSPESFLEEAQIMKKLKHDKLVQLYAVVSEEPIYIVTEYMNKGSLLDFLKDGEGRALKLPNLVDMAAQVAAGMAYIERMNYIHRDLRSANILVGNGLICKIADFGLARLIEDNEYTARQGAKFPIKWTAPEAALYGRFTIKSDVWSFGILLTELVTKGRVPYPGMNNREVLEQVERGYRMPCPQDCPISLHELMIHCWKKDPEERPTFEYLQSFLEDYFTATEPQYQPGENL
Experimental: as §1

LYN = biological target: T6, LYN (Homo sapiens, UniProt P07948)
T6 construct: Human recombinant full-length kinases were incubated in kinase buffer
T6 sequence (P07948 whole entry): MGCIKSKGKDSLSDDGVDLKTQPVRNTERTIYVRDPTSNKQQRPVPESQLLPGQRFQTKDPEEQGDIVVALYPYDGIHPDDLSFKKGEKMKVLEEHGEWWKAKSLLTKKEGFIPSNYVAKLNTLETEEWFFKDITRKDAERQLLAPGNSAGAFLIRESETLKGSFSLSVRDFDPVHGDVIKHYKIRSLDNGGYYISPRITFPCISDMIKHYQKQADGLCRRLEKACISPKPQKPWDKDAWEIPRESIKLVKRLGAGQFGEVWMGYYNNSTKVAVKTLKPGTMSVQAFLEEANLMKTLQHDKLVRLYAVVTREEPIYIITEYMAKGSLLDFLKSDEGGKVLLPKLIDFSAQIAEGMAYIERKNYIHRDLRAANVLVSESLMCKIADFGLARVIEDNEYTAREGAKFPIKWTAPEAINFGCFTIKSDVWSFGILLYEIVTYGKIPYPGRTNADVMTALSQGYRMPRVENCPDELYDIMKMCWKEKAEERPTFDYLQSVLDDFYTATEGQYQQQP
Experimental: as §1

Aurora B = biological target: T7, Aurora B (Homo sapiens, UniProt Q96GD4)
T7 construct: Human recombinant full-length kinases were incubated in kinase buffer
Experimental: as §1

PAK1 = biological target: T8, PAK1 (Homo sapiens, UniProt Q13153)
T8 construct: Human recombinant full-length kinases were incubated in kinase buffer
Experimental: as §1

SYK = biological target: T9, SYK (Homo sapiens, UniProt P43405)
T9 construct: Human recombinant full-length kinases were incubated in kinase buffer
Experimental: as §1

FAK = biological target: T10, FAK (Homo sapiens, UniProt Q05397); conditions: 1 μM; Table 2; read-out: % Inhibition FAK
T10 construct: Human recombinant full-length kinases were incubated in kinase buffer
T10 sequence (Q05397 whole entry): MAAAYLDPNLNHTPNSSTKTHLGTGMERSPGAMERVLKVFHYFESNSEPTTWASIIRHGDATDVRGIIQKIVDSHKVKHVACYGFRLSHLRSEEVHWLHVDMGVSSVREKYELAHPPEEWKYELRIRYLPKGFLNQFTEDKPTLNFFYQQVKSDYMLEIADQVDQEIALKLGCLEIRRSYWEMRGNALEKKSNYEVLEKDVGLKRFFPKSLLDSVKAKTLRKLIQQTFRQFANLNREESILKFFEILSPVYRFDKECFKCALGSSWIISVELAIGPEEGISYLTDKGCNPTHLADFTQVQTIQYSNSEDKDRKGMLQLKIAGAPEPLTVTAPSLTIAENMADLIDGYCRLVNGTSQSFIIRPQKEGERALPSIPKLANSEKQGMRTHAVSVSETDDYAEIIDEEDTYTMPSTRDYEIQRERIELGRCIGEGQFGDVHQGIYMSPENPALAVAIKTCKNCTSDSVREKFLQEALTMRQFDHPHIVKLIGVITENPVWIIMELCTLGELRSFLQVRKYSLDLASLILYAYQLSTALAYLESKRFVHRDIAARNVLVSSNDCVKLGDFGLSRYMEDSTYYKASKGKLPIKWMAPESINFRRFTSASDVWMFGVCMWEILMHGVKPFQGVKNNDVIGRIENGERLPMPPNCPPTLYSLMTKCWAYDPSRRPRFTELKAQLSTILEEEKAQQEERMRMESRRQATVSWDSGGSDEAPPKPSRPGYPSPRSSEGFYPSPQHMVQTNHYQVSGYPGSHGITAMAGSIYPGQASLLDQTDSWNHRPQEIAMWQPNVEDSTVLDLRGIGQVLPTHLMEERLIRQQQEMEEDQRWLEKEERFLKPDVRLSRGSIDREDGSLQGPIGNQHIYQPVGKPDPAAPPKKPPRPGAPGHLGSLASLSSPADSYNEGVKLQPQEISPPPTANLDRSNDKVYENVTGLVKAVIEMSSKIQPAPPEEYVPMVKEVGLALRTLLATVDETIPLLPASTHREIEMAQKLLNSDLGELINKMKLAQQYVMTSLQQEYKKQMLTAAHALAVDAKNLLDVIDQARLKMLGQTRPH
Experimental: as §1

TIE1 = biological target: T11, TIE1 (Homo sapiens, UniProt P35590)
T11 construct: Human recombinant full-length kinases were incubated in kinase buffer
T11 sequence (P35590 22-1138): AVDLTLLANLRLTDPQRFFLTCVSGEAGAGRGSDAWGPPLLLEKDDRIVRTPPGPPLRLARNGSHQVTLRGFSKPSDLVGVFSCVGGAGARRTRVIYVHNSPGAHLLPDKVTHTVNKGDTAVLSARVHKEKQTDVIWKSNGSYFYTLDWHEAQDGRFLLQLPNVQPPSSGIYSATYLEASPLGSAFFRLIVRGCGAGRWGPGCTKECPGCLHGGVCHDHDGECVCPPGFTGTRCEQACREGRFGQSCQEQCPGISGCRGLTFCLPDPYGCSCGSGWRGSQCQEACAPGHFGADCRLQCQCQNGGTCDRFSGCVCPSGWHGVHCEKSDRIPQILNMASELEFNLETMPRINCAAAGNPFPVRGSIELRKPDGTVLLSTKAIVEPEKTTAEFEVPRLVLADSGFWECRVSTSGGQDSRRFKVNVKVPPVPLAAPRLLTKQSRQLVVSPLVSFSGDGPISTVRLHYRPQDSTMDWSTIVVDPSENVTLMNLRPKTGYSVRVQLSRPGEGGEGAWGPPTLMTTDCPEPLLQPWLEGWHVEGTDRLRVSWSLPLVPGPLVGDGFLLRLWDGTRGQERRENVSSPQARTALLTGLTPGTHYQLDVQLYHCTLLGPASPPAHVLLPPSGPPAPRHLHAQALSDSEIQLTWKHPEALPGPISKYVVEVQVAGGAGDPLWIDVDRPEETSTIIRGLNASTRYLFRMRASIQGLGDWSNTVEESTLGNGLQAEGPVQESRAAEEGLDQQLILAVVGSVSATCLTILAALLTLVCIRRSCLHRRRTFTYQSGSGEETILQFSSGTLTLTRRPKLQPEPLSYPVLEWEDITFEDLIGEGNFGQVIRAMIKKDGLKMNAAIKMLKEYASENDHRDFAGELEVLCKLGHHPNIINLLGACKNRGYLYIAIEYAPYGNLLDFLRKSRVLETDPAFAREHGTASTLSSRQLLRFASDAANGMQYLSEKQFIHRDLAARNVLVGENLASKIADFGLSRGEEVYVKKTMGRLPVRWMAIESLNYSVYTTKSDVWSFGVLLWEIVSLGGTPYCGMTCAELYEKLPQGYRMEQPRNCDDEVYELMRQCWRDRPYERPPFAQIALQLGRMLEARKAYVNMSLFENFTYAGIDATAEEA
Experimental: as §1

IGF1R = biological target: T12, IGF1R (Homo sapiens, UniProt P08069)
T12 construct: Human recombinant full-length kinases were incubated in kinase buffer
Experimental: as §1

INSR = biological target: T13, INSR (Homo sapiens, UniProt P06213)
T13 construct: Human recombinant full-length kinases were incubated in kinase buffer
Experimental: as §1

EGFR = biological target: T14, EGFR (Homo sapiens, UniProt P00533)
T14 construct: Human recombinant full-length kinases were incubated in kinase buffer
Experimental: as §1

DDR1 = biological target: T15, DDR1 (Homo sapiens, UniProt Q08345)
T15 construct: Human recombinant full-length kinases were incubated in kinase buffer
Experimental: as §1

PKC-α = biological target: T16, PKC-α (Homo sapiens, UniProt P17252); conditions: Table 2
T16 construct: Human recombinant full-length kinases were incubated in kinase buffer
Experimental: as §1

EPHA1 = biological target: T17, EPHA1 (Homo sapiens, UniProt P21709)
T17 construct: Human recombinant full-length kinases were incubated in kinase buffer
Experimental: as §1

PDGFR-β = biological target: T18, PDGFR-β (Homo sapiens, UniProt P09619)
T18 construct: Human recombinant full-length kinases were incubated in kinase buffer
Experimental: as §1

AKT-1 = biological target: T19, AKT-1 (Homo sapiens, UniProt P31749); conditions: Table 2
T19 construct: Human recombinant full-length kinases were incubated in kinase buffer
T19 sequence (P31749 whole entry): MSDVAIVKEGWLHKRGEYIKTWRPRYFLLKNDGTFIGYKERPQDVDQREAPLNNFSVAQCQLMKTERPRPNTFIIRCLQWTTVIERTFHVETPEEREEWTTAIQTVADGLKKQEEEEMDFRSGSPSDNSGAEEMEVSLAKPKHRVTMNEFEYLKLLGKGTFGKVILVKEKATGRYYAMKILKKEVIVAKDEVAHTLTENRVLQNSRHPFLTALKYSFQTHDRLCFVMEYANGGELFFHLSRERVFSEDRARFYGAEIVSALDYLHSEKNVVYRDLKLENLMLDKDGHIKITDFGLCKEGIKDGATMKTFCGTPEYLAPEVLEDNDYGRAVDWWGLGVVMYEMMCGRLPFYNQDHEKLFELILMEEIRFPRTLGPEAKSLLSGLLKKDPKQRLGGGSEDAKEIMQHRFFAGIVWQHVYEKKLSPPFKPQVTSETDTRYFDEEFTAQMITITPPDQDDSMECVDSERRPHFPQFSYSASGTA
Experimental: as §1

Aurora A = biological target: T20, Aurora A (Homo sapiens, UniProt O14965)
T20 construct: Human recombinant full-length kinases were incubated in kinase buffer
Experimental: as §1

RPS6KA4 = biological target: T21, RPS6KA4 (Homo sapiens, UniProt O75676)
T21 construct: Human recombinant full-length kinases were incubated in kinase buffer
Experimental: as §1

PLK4 = biological target: T22, PLK4 (Homo sapiens, UniProt O00444)
T22 construct: Human recombinant full-length kinases were incubated in kinase buffer
Experimental: as §1

FGFR1 = biological target: T23, FGFR1 (Homo sapiens, UniProt P11362)
T23 construct: Human recombinant full-length kinases were incubated in kinase buffer
Experimental: as §1

PIM1 = biological target: T24, PIM1 (Homo sapiens, UniProt P11309)
T24 construct: Human recombinant full-length kinases were incubated in kinase buffer
T24 sequence (P11309 whole entry): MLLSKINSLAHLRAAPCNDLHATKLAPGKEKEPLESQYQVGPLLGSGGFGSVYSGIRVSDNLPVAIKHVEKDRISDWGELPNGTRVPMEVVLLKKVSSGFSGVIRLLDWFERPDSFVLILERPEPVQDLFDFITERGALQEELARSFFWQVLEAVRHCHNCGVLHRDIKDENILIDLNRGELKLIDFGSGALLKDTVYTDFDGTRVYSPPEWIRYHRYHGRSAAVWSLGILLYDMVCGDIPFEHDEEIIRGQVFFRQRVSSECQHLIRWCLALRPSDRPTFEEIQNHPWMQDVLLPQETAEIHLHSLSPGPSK
Experimental: as §1

CDK1/Cyclin B = biological target: T25, CDK1/Cyclin B (Homo sapiens, UniProt P06493)
T25 construct: Human recombinant full-length kinases were incubated in kinase buffer
Experimental: as §1

SGK3 = biological target: T26, SGK3 (Homo sapiens, UniProt Q96BR1)
T26 construct: Human recombinant full-length kinases were incubated in kinase buffer
Experimental: as §1

YES1 = biological target: T27, YES1 (Homo sapiens, UniProt P07947)
T27 construct: Human recombinant full-length kinases were incubated in kinase buffer
T27 sequence (P07947 whole entry): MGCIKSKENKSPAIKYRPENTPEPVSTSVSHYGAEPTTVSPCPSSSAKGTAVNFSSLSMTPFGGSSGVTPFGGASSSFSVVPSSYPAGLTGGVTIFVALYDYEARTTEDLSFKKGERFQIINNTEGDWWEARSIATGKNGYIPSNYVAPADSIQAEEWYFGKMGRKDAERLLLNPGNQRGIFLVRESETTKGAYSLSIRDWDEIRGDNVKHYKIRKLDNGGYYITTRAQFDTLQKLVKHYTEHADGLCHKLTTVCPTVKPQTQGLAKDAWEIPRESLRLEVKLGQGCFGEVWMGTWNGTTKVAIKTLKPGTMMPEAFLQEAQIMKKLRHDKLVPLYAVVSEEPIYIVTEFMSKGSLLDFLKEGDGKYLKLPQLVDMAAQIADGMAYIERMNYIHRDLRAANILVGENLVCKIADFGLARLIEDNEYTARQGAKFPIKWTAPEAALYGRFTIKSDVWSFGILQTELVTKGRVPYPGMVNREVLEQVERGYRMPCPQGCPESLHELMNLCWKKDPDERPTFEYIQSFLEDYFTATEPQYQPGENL
Experimental: as §1

P38-γ = biological target: T28, P38-γ (Homo sapiens, UniProt P53778)
T28 construct: Human recombinant full-length kinases were incubated in kinase buffer
T28 sequence (P53778 whole entry): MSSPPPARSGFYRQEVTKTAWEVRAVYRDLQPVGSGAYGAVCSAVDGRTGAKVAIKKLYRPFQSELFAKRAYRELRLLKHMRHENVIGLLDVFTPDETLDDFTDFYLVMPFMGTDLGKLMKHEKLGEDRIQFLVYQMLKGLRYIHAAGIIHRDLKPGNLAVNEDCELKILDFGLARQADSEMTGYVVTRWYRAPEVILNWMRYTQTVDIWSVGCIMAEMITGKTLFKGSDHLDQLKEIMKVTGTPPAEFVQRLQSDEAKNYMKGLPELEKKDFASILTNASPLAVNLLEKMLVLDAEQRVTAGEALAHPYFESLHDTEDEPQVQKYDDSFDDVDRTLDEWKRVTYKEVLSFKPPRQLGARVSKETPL
Experimental: as §1

VEGFR2 = biological target: T29, VEGFR2 (Homo sapiens, UniProt P35968)
T29 construct: Human recombinant full-length kinases were incubated in kinase buffer
Experimental: as §1

FLT3 = biological target: T30, FLT3 (Homo sapiens, UniProt P36888)
T30 construct: Human recombinant full-length kinases were incubated in kinase buffer
Experimental: as §1

TRKB = biological target: T31, TRKB (Homo sapiens, UniProt Q16620)
T31 construct: Human recombinant full-length kinases were incubated in kinase buffer
Experimental: as §1

SRC = biological target: T32, SRC (Homo sapiens, UniProt P12931)
T32 construct: Human recombinant full-length kinases were incubated in kinase buffer
Experimental: as §1

O=c1c2ccccc2[se]n1-c1ccccc1 [Ebselen, reference compound]
inhibition at 1 µM (ABL1): 0%
inhibition at 1 µM (MET): 0%
inhibition at 1 µM (IKK-ε): 0%
inhibition at 1 µM (HER2): 0%
inhibition at 1 µM (FYN): 0%
inhibition at 1 µM (LYN): 0%
inhibition at 1 µM (Aurora B): 0%
inhibition at 1 µM (PAK1): 0%
inhibition at 1 µM (SYK): 0%
inhibition at 1 µM (FAK): 1%
inhibition at 1 µM (TIE1): 0%
inhibition at 1 µM (IGF1R): 0%
inhibition at 1 µM (INSR): 0%
inhibition at 1 µM (EGFR): 0%
inhibition at 1 µM (DDR1): 0%
inhibition at 1 µM (PKC-α): 25%
inhibition at 1 µM (EPHA1): 0%
inhibition at 1 µM (PDGFR-β): 0%
inhibition at 1 µM (AKT-1): 22%
inhibition at 1 µM (Aurora A): 0%
inhibition at 1 µM (RPS6KA4): 0%
inhibition at 1 µM (PLK4): 0%
inhibition at 1 µM (FGFR1): 0%
inhibition at 1 µM (PIM1): 0%
inhibition at 1 µM (CDK1/Cyclin B): 0%
inhibition at 1 µM (SGK3): 0%
inhibition at 1 µM (YES1): 0%
inhibition at 1 µM (P38-γ): 0%
inhibition at 1 µM (VEGFR2): 0%
inhibition at 1 µM (FLT3): 0%
inhibition at 1 µM (TRKB): 0%
inhibition at 1 µM (SRC): 0%
